Test results reported in patent US9422324B2, “6-substituted demethyl-estradiol derivatives as selective ER-β agonists” (priority 2010, dated 2016).

Columns and labels:
ERβ = ERβ (Homo sapiens (Human), UniProt Q92731); assay: Luciferase reporter assay in MDA-MB-231 cells transfected with ERα or ERβ; type: cell-based; conditions: MDA-MB-231, 24 hours; relative to B and I; from FIGS. 2 and 3 and Table 1
Method: Response of I and B on ERα and ERβ is measured by a luciferase assay. MDA-MB-231 cells are transiently transfected with expression vectors encoding either ERα or ERβ and co-transfected with a luciferase reporter construct. Cells are treated for 24 hours at […] with increasing amounts of test article.

TREK2 = assay: Expression profiling (Agilent microarray), TREK2 gene transcription in tumor cell lines; type: cell-based, human; conditions: 24 hours
Method: (§1) The study includes three human tumor cell lines: A549, Panc-1, and SK-OV-3. The lines are each grown in two flasks cultured to roughly 40% confluence. One of the flasks is treated by addition of drug to the culture media at a various concentrations. The other, mock treated, flask is treated only with the vehicle used to solubilize and deliver the drug. RNA extracted from the pairs of treated and untreated samples is subjected to microarray analysis on Agilent Whole Human Genome Microarrays (G4112F). Each analysis reports the difference in abundance of messenger RNAs for each of the 41,000 specific mRNA detectors on the array. This direct comparison of the treated versus untreated samples for each cell line provides extremely sensitive detection of changes in mRNA abundance resulting from the drug treatment. As each cell line comparison is self-normalized, the results can be compared across the samples with high confidence.
(§2) Three human tumor cell lines, A549, Panc-1, and SK-OV-3, are each grown in two flasks cultured to roughly 40% confluence. One of the flasks is treated by addition of compound 1 to the culture media at concentrations according to Table 1 above. The other, mock treated, flask is treated only with the vehicle used to solubilize and deliver the drug. All flasks are cultured for a further 24 hours, and then the cells are scraped free and washed in ice-cold PBS, then collected by centrifugation. The harvested cells are immediately frozen, and stored at −80° C. or colder. It is visually noticeable that the treated cells yielded less mass than the untreated cells.
(§3) Total RNA is prepared from the frozen tissue samples using Trizol-based cell lysis followed by 65° C. hot phenol extraction and RNeasy chromatography purification. The purified RNA samples are analyzed spectrophotometrically. The concentration of RNA is determined by measuring the absorbance at 260 nm (A260). Given an absorbance of 1 unit at 260 nm corresponds to […].
(§4) All RNAs are labeled using 1 microgram of RNA as input to an Agilent Low Input Labeling reaction.
(§5) Test RNA is labeled with Cy5 (650 nm emitter) and reference RNA is labeled with Cy3 (550 nm emitter) nucleotides. Labeling, hybridizations and subsequent washings are carried out on Agilent H1Av2 human expression chips. The resulting hybridized chips are scanned on an Agilent microarray scanner, and intensity information for each detector spot is extracted from the scanned image using Agilent feature extraction software. The set of data images and extracted measurements from each image are supplied.
(§6) The data reported are the red (treated) and green (untreated) background-subtracted signals. This is the least modified form of the data. A background “surface” is estimated across the slide, based on numerous probes that are not complementary to human DNA. These serve as estimators of both non-specific binding of labeled cRNA to array surfaces and non-specific binding of labeled cRNA to the immobilized DNA oligomers. Using this information, local noise around each probe is estimated and this is subtracted from the signal found at the area of oligonucleotide deposition for each particular probe feature on the array (gBGSubSignal, rBGSubSignal). The ratio of signal from the RNA of the treated cell and the RNA of the untreated cell is reported both as a direct ratio and as the log2 ratio (Ratio, Log2Ratio).
(§7) After the ratios have been calculated for the normalized data, the various control and duplicate samples are analyzed to build a model of how reproducible the results are, and how this reproducibility is varies depending on signal strength and noise. With these parameters, an estimate of the likelihood that each ratio could have arisen if the red and green intensities are randomly drawn from a single process that produced the same distribution of intensities is produced. […]

TREK1 = assay: Expression profiling (Agilent microarray), TREK1 gene transcription in tumor cell lines; type: cell-based, human; conditions: 24 hours
Method: as §1, §2, §3, §4, §5, §6, §7

Chain of ERβ (Q92731 whole entry, species assumed): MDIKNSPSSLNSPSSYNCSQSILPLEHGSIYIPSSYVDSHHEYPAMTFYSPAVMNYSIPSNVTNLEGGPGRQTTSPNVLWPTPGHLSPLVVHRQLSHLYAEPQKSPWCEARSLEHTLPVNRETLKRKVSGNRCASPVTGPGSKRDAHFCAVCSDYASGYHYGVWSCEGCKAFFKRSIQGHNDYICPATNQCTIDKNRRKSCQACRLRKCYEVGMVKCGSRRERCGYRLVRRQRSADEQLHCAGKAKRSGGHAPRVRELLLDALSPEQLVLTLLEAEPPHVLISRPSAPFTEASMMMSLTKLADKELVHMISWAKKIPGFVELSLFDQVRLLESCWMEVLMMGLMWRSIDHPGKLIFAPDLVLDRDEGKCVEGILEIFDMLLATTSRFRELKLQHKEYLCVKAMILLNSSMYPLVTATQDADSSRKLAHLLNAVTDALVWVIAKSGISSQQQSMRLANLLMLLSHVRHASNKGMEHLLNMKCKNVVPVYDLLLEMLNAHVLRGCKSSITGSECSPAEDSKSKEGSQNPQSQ

Structure (SMILES): COC[C@@H]1C[C@@H]2[C@H](CCC3[C@H]2CC[C@@H]3O)c2ccc(O)cc21 (stereo partly drawn) [compound 1, (6R,8S,9S,14S,17S)-6-(methoxymethyl)-7,8,9,11,12,13,14,15,16,17-decahydro-6H-cyclopenta[a]phenanthrene-3,17-diol]
- ER subtype functional profile (% of E2 activity on ERα and ERβ) (ERβ): ERβ specific agonist
- TREK2 Log 2 ratio treated/untreated (TREK2; A549, 50 μM): 5.37/
- TREK2 Log 2 ratio treated/untreated (TREK2; A549, 20 μm): 3.79/
- TREK2 Log 2 ratio treated/untreated (TREK2; A549, 100 μm): 3.00/
- TREK2 Log 2 ratio treated/untreated (TREK2; PANC1, 50 μM): 4.20/
- TREK2 Log 2 ratio treated/untreated (TREK2; PANC1, 20 μm): 4.15/
- TREK2 Log 2 ratio treated/untreated (TREK2; PANC1, 100 μm): 3.91/
- TREK2 Log 2 ratio treated/untreated (TREK2; SKOV-3, 50 μM): 5.56/
- TREK2 Log 2 ratio treated/untreated (TREK2; SKOV-3, 20 μm): 4.12/
- TREK2 Log 2 ratio treated/untreated (TREK2; SKOV-3, 100 μm): 4.07/
- TREK1 Log 2 ratio treated/untreated (TREK1; A549, 50 μM): 4.07/
- TREK1 Log 2 ratio treated/untreated (TREK1; A549, 100 μm): 3.53/
- TREK1 Log 2 ratio treated/untreated (TREK1; PANC1, 50 μM): 2.05/
- TREK1 Log 2 ratio treated/untreated (TREK1; PANC1, 20 μm): 4.78/
- TREK1 Log 2 ratio treated/untreated (TREK1; PANC1, 100 μm): 3.51/
- TREK1 Log 2 ratio treated/untreated (TREK1; SKOV-3, 50 μM): 2.80/
- TREK1 Log 2 ratio treated/untreated (TREK1; SKOV-3, 20 μm): 1.96/
- TREK1 Log 2 ratio treated/untreated (TREK1; SKOV-3, 100 μm): 1.97/
